Source: the supplement of paper PMC10477900
Structures can show the parent of a compound that is named as a salt.

What was measured:
HCT116 [1] = conditions: 72 h
Procedure: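 HCT116 control and MTA1-KO (CRISPR) HCT116 cells were seeded in 384-well plates (800 cells/well), treated 16 h later with 237 metabolism-related anticancer drugs at five doses (10 uM, 2 uM, 400 nM, 80 nM, 16 nM) for 72 h, two replicates; viability by CCK8. Values are % inhibition of viability relative to untreated cells, plus fitted IC50.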

HCT116 [2] = assay: viability inhibition vs untreated; higher = more cytotoxic; conditions: 72 h

| SMILES | IC50 (HCT116 [1]; genotype: MTA1-KO) | IC50 (HCT116 [1]; genotype: control) | viability inhibition (HCT116 [2]; genotype: MTA1-KO, 16 nM) | viability inhibition (HCT116 [2]; genotype: MTA1-KO, 80 nM) | viability inhibition (HCT116 [2]; genotype: MTA1-KO, 400 nM) | viability inhibition (HCT116 [2]; genotype: MTA1-KO, 2000 nM) | viability inhibition (HCT116 [2]; genotype: MTA1-KO, 10000 nM) | viability inhibition (HCT116 [2]; genotype: control, 16 nM) | viability inhibition (HCT116 [2]; genotype: control, 80 nM) | viability inhibition (HCT116 [2]; genotype: control, 400 nM) | viability inhibition (HCT116 [2]; genotype: control, 2000 nM) | viability inhibition (HCT116 [2]; genotype: control, 10000 nM) |
| --- | --- | --- | --- | --- | --- | --- | --- | --- | --- | --- | --- | --- |
| CO[C@H]1C[C@@H]2CC[C@@H](C)[C@@](O)(O2)C(=O)C(=O)N2CCCC[C@H]2C(=O)O[C@H]([C@H](C)C[C@@H]2CC[C@@H](O)[C@H](OC)C2)CC(=O)[C@H](C)/C=C(\C)[C@@H](O)[C@@H](OC)C(=O)[C@H](C)C[C@H](C)/C=C/C=C/C=C/1C [Rapamycin] | > 10 µM | > 10 µM | 4.81% | 4.98% | 3.36% | 17.6% | 18.4% | -3% | -2.75% | 2.91% | 0.723% | 24.6% |
| O=C(Oc1cccc(F)c1OC(=O)c1cccc(O)c1)c1cccc(O)c1 [WZB117] | > 10 µM | > 10 µM | 1.38% | -12.9% | -10.3% | -1.16% | 12.7% | -23.3% | -8.87% | -3.93% | -25.9% | -15% |
| OC(CNc1ccccc1)Cn1c2ccc(Br)cc2c2cc(Br)ccc21 (stereo not given) [P7C3] | > 10 µM | > 10 µM | -3.09% | -13% | -15.4% | -15.3% | 6.71% | 10.1% | -2.92% | 4.14% | -4.2% | 7.54% |
| O=C(O[C@@H]1Cc2c(O)cc(O)cc2O[C@@H]1c1cc(O)c(O)c(O)c1)c1cc(O)c(O)c(O)c1 [(-)-Epigallocatechin Gallate] | > 10 µM | > 10 µM | 13% | -1.62% | 5.38% | 12% | 19.4% | -8.68% | -5.93% | -14.9% | -4.61% | -3.45% |
| O=C(O)c1ccc(C=C2SC(=S)N(c3cccc(C(F)(F)F)c3)C2=O)cc1 [CFTRinh172] | > 10 µM | 5.31 µM | -5.28% | -12.6% | -0.878% | -4.39% | 25.2% | -6.21% | -18.3% | -11.9% | 16% | 64.3% |
| CC(C)c1c(C(=O)Nc2ccccc2)c(-c2ccccc2)c(-c2ccc(F)cc2)n1CC[C@@H](O)C[C@@H](O)CC(=O)O [Atorvastatin Calcium] | > 10 µM | > 10 µM | -2.27% | -15.2% | -21.3% | -22.7% | -6.12% | 6.18% | -8.85% | -7.43% | -3.65% | 17% |
| c1cc(-c2cnn3cc(-c4ccc(OCCN5CCCCC5)cc4)cnc23)ccn1 [Dorsomorphin] | > 10 µM | > 10 µM | 1.25% | -13.4% | -12.4% | -11.7% | -1.25% | 19.5% | 29.9% | 18.4% | 20.9% | 19.6% |
| Oc1ccc2c(c1)OCO2 [Sesamol] | > 10 µM | > 10 µM | -15.3% | -20.6% | -20.7% | -23.5% | -9.02% | 12.7% | -1.76% | -11.9% | -12.6% | -2.94% |
| O=S(=O)(NCCSSCCNS(=O)(=O)c1cc(Cl)ccc1Cl)c1cc(Cl)ccc1Cl [KC7F2] | > 10 µM | > 10 µM | 3.77% | 14.6% | 13.5% | 9.73% | 16.2% | 25.3% | 14.3% | 11.1% | 9.06% | 24.4% |
| C[C@@H](C(=O)Nc1ccc(Cl)cc1)[C@H]1CC[C@@H](c2ccnc3ccc(F)cc32)CC1 [Linrodostat] | > 10 µM | > 10 µM | 1.54% | 1.21% | 3.39% | 14.8% | 44.2% | 10.9% | 21.6% | 17.7% | 28.7% | 22% |
| COc1ccc(-c2ccccc2)cc1NS(=O)(=O)c1cc(Cl)cc(Cl)c1O | > 10 µM | > 10 µM | 4.57% | -1.5% | -3.79% | -1.98% | 8.72% | -1.23% | 6.1% | 4.53% | 6.77% | 13.4% |
| Nc1ncnc2c1c(-c1cnc3[nH]ccc3c1)nn2C1CCCC1 [PP121] | 0.675 µM | 0.874 µM | 14.3% | 12.8% | 43.5% | 90.3% | 111% | 10.8% | 16.8% | 25.2% | 86.4% | 104% |
| Nc1ccc(S(N)(=O)=O)cc1 [Sulfanilamide] | > 10 µM | > 10 µM | -4.56% | -14.5% | -27.6% | -20.9% | -19.4% | -9.12% | -7.95% | -13.7% | -13.7% | -7.82% |
| O=C(Cc1cccc(OC(F)(F)F)c1)Nc1ccc(CCCCc2nnc(NC(=O)Cc3ccccn3)s2)nn1 [CB839] | > 10 µM | > 10 µM | -4.17% | 2.28% | -14.1% | 1.81% | 3.54% | 0.501% | 13.6% | 24% | 20.5% | 20.2% |
| CC(=O)c1ccc2c(c1)c1cc(C(C)=O)ccc1n2CCNC(C)C [CBL0137 hydrochloride] | 0.379 µM | 0.355 µM | -9.26% | -16.6% | 65.6% | 114% | 109% | 7.74% | -9.1% | 81.5% | 108% | 103% |
